Several values for one entry are separate records, joined by “and”; a condition that tells them apart may be missing. Identical values can stand only once. Entries after “also recorded” stand apart in the source; their conditions may differ.
Key:
[1] = test system: Human Subject Diagnosed with Fibromyalgia; experiment: Patient history of prior treatment of the fibromyalgia subjects; details: for pain relief, prescription analgesics / side effects, prescription analgesics: Examples 1-3, codeine at high dose; for pain relief, OTC analgesics: Examples 1-3, codeine at low dose
Description: (§1) Patient History of Prior Treatment: A patient history was taken. Prior treatments targeting pain relief were as follows.
Prior treatments targeting other symptoms included the following. The subject had taken tegaserod for irritable bowel syndrome. Additional prior therapies included sertraline for depression, and zolpidem for insomnia. The subject has also taken proclorperazine for dizziness.
Prior treatments targeting other symptoms included the following. The subject had taken tegaserod for irritable bowel syndrome. Additional prior therapies included sertraline for depression, and zolpidem for insomnia.
as §1
Prior treatments targeting other symptoms included the following. The subject had taken tegaserod for irritable bowel syndrome. Additional prior therapies included zolpidem, midazolam, zopiclone, and chlorpheniramine for insomnia.

pyruvate dehydrogenase = details: Kantor et al., Circ. Res. 2000; cited from earlier work
glucose oxidation = details: Kantor et al., Circ. Res. 2000; cited from earlier work
[2] = test system: Human Subject Diagnosed with Fibromyalgia; experiment: Treatment of human subjects diagnosed with fibromyalgia with trimetazidine (Vastarel MR 35 mg orally, twice daily); format: in vivo; details: for reduction in the widespread pain: subject-reported
Experimental: (§2) A person presented with long-standing complaints (15 years) of widespread pain—headaches, upper and lower back pain, neck pain, elbow and knee pain bilaterally, calf pain bilaterally and jaw pain. General non-specific symptoms were fatigue, symptoms of irritable bowel syndrome (constipation-type), insomnia, cognitive and memory impairment, morning stiffness, dizziness, irritability and depression.
Treatment Regime: The subject was administered trimetazidine (modified release formulation, Vastarel® MR), 35 mg orally, twice daily, originally for treatment of their cardiac condition.
as §2, with “(10” for “(15”, “hip” for “elbow and knee”, “knee” for “calf”, “stiffness,” for “stiffness, dizziness, irritability”
Treatment Regime: The subject was administered trimetazidine (modified release formulation, Vastarel® MR), 35 mg orally, twice daily.
A person presented with a 5 year history of complaints of widespread pain headaches, upper and lower back pain, neck pain, hip pain bilaterally and knee pain bilaterally. General non-specific symptoms were fatigue, symptoms of irritable bowel syndrome (constipation-type), insomnia, morning stiffness and emotional liability.
The following is a synopsis of the clinical response of each of eight (8) patients diagnosed with FMS, each of whom received treatment with trimetazidine MR (Vastarel® MR), 35 mg orally, twice daily, for a period of at least four (4) weeks

[3] = test system: long-chain fatty acid oxidation; details: Kantor et al., Circ. Res. 2000; cited from earlier work
[4] = target: long chain 3-ketoacyl CoA thiolase (Rattus norvegicus, UniProt Q60587); details: Kantor et al., Circ. Res. 2000; cited from earlier work
[5] = Example 1, after six (6) months of continuous use
[6] = Example 4, individual FMS patients, Short Term i.e. within 72 hours
[7] = Example 4, individual patients, Medium Term i.e. over four (4) weeks
[8] = Example 4, individual patients, within 72 hours
[9] = Example 4, person five, within 72 hours
[10] = Example 4, person four, within 72 hours
[11] = Example 4, person one, within 72 hours
[12] = Examples 2 and 3, after four (4) months of continuous use
[13] = Examples 2 and 3, within 24 hours

Chain of long chain 3-ketoacyl CoA thiolase (Q60587 35-475): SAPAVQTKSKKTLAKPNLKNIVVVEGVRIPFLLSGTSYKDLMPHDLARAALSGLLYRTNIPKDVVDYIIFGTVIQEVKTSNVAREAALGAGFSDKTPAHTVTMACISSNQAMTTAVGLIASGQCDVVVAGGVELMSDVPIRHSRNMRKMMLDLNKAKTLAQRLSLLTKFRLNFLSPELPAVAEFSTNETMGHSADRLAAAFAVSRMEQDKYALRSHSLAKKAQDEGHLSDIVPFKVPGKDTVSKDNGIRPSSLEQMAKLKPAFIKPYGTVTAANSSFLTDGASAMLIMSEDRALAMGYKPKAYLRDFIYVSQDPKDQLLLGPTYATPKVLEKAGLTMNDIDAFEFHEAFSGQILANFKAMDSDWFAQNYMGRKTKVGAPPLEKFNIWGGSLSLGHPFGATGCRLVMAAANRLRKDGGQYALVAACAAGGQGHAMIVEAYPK
Chain of long chain 3-ketoacyl CoA thiolase (Q64428 37-763 partner): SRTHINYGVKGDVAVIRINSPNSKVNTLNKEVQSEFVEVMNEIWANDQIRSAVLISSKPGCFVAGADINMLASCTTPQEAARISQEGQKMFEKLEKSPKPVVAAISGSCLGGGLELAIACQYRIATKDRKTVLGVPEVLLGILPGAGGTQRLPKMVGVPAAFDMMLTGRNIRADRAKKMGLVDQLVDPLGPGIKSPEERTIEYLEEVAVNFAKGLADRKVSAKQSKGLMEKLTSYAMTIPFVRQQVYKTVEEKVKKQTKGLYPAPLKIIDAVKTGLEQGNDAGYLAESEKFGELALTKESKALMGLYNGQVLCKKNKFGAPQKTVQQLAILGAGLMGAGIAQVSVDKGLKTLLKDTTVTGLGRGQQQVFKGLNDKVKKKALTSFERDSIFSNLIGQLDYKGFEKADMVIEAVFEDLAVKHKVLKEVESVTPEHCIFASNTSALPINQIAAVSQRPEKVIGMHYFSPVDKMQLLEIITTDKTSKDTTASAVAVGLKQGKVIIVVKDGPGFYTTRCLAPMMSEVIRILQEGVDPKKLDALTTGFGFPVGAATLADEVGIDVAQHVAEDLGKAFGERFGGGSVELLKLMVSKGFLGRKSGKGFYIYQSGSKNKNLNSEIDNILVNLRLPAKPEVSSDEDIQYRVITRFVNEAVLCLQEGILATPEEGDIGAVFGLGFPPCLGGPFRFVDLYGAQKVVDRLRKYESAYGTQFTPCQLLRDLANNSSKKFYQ

SMILES: COc1cccc(C2(O)CCCCC2CN(C)C)c1 (centres unmarked) [tramadol]
- pain relief, prescription analgesics [1]: mild to moderate and very temporary relief
- side effects, prescription analgesics [1]: frequently accompanied by unpleasant side effects

SMILES: CCN(CC)CC(=O)Nc1c(C)cccc1C [lidocaine]
- localized pain relief, trigger point injections ([1]; Examples 1 and 2): the best localized pain relief

SMILES: CC(=O)Nc1ccc(O)cc1 [paracetamol]
- pain relief, OTC analgesics [1]: no pain relief whatsoever; also recorded: negligible pain relief

SMILES: COc1ccc(CN2CCNCC2)c(OC)c1OC [trimetazidine, 1-(2,3,4-trimethyloxybenzyl)piperazine]
- levels of pyruvate dehydrogenase (pyruvate dehydrogenase): increased levels
- glucose oxidation (glucose oxidation): stimulates
- time at which benefits were first noticed after commencing therapy ([2]; Example 1, person, 35 mg orally twice daily): ≤ 24 h
- improvement in all symptoms and signs of fibromyalgia ([2]; Example 1, person, 35 mg orally twice daily, within 72 hours of starting treatment): vast improvement
- reduction in the widespread pain ([2]; Example 1, person, within 72 hours): 90%
- episodes of pain at trigger points at follow-up [2, 5]: infrequent
- quality of life at follow-up [2, 5]: same marked improvement
- clarity of thoughts ([2]; Example 1, within 72 hours): markedly increased
- energy levels ([2]; Example 1, within 72 hours): very significantly increased
- level of irritability ([2]; Example 1, within 72 hours): markedly reduced
- mood ([2]; Example 1, within 72 hours): very improved
- regularity of bowel habits ([2]; Example 1, within 72 hours): markedly improved
- residual pain ([2]; Example 1, within 72 hours): minimal residual pain reported at the left medial knee
- short and long term memory ([2]; Example 1, within 72 hours): improvement
- sleep patterns ([2]; Example 1, within 72 hours): very significantly improved
- clarity of thoughts ([2]; Example 2, within 24 hours): markedly increased
- short and long term memory ([2]; Example 2, within 24 hours): improvement
- reduction in widespread pain [2, 6]: 90% reduction in
- reduction in widespread pain and trigger point pain [2, 6]: 90% reduction in
- affect (EXAMINATION FINDINGS; patient: affect and energy levels) ([2]; Example 4, individual patients): markedly improved
- resolution of trigger point tenderness (EXAMINATION FINDINGS) ([2]; Example 4, individual patients): Sustained
- Residual symptoms [2, 7]: include mild acid; also recorded: infrequent headaches; also recorded: insomnia; also recorded: episodes of joint
- sense of well-being [2, 7]: increased sense of
- specific complaints [2, 7]: symptoms with no
- Energetic feeling [2, 8]: Energetic feeling
- Nausea (patient: Nausea and Vomiting) [2, 8]: Absence of Nausea
- alertness and clarity of thinking [2, 8]: Increased alertness
- dizziness/dizzy spells [2, 8]: Infrequent dizzy; also recorded: Absence of
- improved mood and concentration [2, 8]: Significantly
- improved mood and memory [2, 8]: Significantly
- reduction in feeling of generalized tightness and stiffness of muscles [2, 8]: 90% reduction in (2×) and 90% reduction of
- sleep [2, 8]: Consistent restful
- improved energy levels (EXAMINATION FINDINGS) ([2]; Example 4, person five): Markedly
- reduction in irritability [2, 9]: 90% reduction in
- reduction in symptoms of Irritable Bowel Syndrome [2, 9]: 90% reduction in
- Memory [2, 10]: Improved Memory
- Nervousness [2, 10]: No Nervousness
- improvement in physical appearance (EXAMINATION FINDINGS) ([2]; Example 4, person one): obvious marked
- increase in energy levels ([2]; Example 4, person one, after four (4) weeks of daily use): particular a sustained
- Chest Pain [2, 11]: Absence of Chest
- symptoms of Irritable Bowel Syndrome [2, 11]: Markedly reduced
- sustained improvement of symptoms ([2]; Example 4, person three, after four (4) months of daily use): 95% sustained
- reduction in IBS and Acid Reflux Symptoms ([2]; Example 4, person three, within 72 hours): 90% reduction in
- sustained improvement of symptoms ([2]; Example 4, person two, after seven (7) weeks of daily use): dramatic 95%
- reduction in severity of Pre-Menstrual Cramps ([2]; Example 4, person two, within 72 hours): 70% reduction in
- sustained improvement of all symptoms ([2]; Example 4, person, after five (5) weeks of daily use): 95% sustained
- sustained improvement of symptoms ([2]; Example 4, person, after six (6) weeks of daily use): (95%) sustained
- sustained improvement of symptoms ([2]; Example 4, after four (4) weeks of daily use): 95% sustained and 90% sustained
- improvement in all symptoms and signs of fibromyalgia ([2]; Examples 2 and 3, single female patients, 35 mg orally twice daily, within 24 hours of starting treatment): vast improvement
- reduction in the widespread pain ([2]; Examples 2 and 3, single female patients, within 24 hours): 95%
- quality of life at follow-up [2, 12]: same marked improvement
- relapse of symptoms [2, 12]: no relapse
- energy levels [2, 13]: very significantly increased
- mood [2, 13]: very improved
- regularity of bowel habits [2, 13]: markedly improved
- residual pain [2, 13]: minimal residual pain reported at the left hip; also recorded: residual mild headache
- sleep patterns [2, 13]: very significantly improved
- reduction in widespread pain ([2]; FMS patients, course of treatment of at least four weeks): remarkable and measurable reduction
- sustained or improved relief of widespread pain at follow-up ([2]; all patients, follow-up at either four months or four weeks of treatment): 90-95%
- improvement of minor symptoms ([2]; all patients, within 72 hours): significant improvement
- improvement in widespread pain ([2]; eleven human subjects, each): remarkable improvement
- reduction in widespread pain, and where applicable, tender point pain ([2]; eleven human subjects, each, within 72 hours of commencement of treatment): marked reduction
- reduction in widespread pain, on average ([2]; eleven human subjects, within 72 hours of commencing treatment): 90%
- long-chain fatty acid oxidation [3]: inhibits
- activity of long chain 3-ketoacyl CoA thiolase [4]: decreased activity

SMILES: COc1ccc2c3c1O[C@H]1[C@@H](O)C=C[C@H]4[C@@H](C2)N(C)CC[C@@]341 [codeine]
- pain relief, prescription analgesics [1]: mild to moderate and very temporary relief
- side effects, prescription analgesics [1]: frequently accompanied by unpleasant side effects
- pain relief, OTC analgesics [1]: no pain relief whatsoever; also recorded: negligible pain relief

SMILES: CCOC(=O)C1(c2ccccc2)CCN(C)CC1 [meperidine]
- pain relief, prescription analgesics [1]: mild to moderate and very temporary relief
- side effects, prescription analgesics [1]: frequently accompanied by unpleasant side effects

Source: patent publication US20100022551A1, “TRIMETAZIDINE FOR USE IN THE TREATMENT OF FIBROMYALGIA SYNDROME AND RELATED CONDITIONS” (Mintals Limited Consulco, Consulco House, priority 2006, published 2010)
